Source: patent USRE46511E1, “Fused pyrimidine derivatives for inhibition of tyrosine kinase activity” (HANMI SCIENCE CO., LTD., priority 2010, dated 2017)

Legend:
[1] = system: NCI-H1975 cancer cells; assay: Anticancer efficacy test in nude mice xenografted with NCI-H1975 cancer cells; type: in vivo; conditions: oral, one time a day for 10 days, measured on 16th day after administration
Protocol: NCI-H1975 cell (lung cancer cell) was purchased from American Type Culture Collection (ATCC). After formation of tumor by subcutaneous injection with 1×10^8 cells/0.3 mL of tumor cell suspension on the back of mice, passages were carried out and tumor in at least third generation was used in the test.
(§1) In the test, a tumor in the sixth generation isolated from an individual was cut into a size of 30 mg, and transplanted subcutaneously into right flanks of mice using a 12-gauge trocar. The volume of tumor (V) is calculated from following equation 1 after measuring a long diameter (L) and a short diameter (S) using a vernier caliper twice a week for 18 days of test. All test materials were orally administered one time a day for total 10 days, and the tumor growth inhibition rate (IR: tumor growth inhibition rate (%) calculated based on a vehicle-treated control) and the maximum body weight loss (mBWL: maximum body weight loss calculated based on the body weight just before administration) were calculated using following equations 2 and 3. V=L×S^2/2 <Equation 1>
wherein, L is a long diameter and S is a short diameter. IR(%)=(1−(RTG of the treatment group of test material)/(RTG of the control group))×100 <Equation 2>

[2] = Body weight change in nude mice xenografted with NCI-H1975 cancer cells; type: in vivo; conditions: for mBWL (maximum body weight loss): oral, one time a day for 10 days, measured on 10th day after administration
Protocol: as §1, with “. In” for “In”
wherein, RTG is a relative tumor growth, which is the mean tumor volume on a particular day based on […] mean tumor volume. mBWL(%)=(1−(mean body weight on day x/mean body weight just before administration))×100 <Equation 3>
wherein, day x is a day on which the body weight loss is largest during the test.

[3] = system: HCC827 (EGFR DelE746_A750); assay: Inhibition test for growth of cancer cell expressing EGFR (SRB), HCC827; type: cell-based; conditions: Homo sapiens, HCC827, 72 h, HCC827 cells, 72 hours, SRB; read-out: GI50 HCC827 EGFR DelE746_A750;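 note: cells in 96-well plates exposed to tenfold serial dilutions from 100 µM, fixed with trichloroacetic acid, SRB-stained, absorbance read at 540 nm, DMSO under 1%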
[4] = system: NCI-H1975 (EGFR L858R/T790M); assay: Inhibition test for growth of cancer cell expressing EGFR (MTS), NCI-H1975; type: cell-based; conditions: Homo sapiens; NCI-H1975 cells, 48 hours, MTS; read-out: GI50 NCI-H1975 EGFR L858R/T790M
Protocol: A431 cell line was incubated in a high-glucose DMEM (Dulbecco's Modified Eagle's Medium) supplemented with 10% fetal bovine serum (FBS) and 1% penicillin/streptomycin (Gibco BRL), and HCC827 and NCI-H1975 cell lines were incubated in an RPMI medium supplemented with 10% FBS, 1% penicillin/streptomycin and 1% sodium pyruvate.
The cancer cell lines stored in a liquid nitrogen tank were each quickly thawed at 37° C., and centrifuged to remove the medium. The resulting cell pellet was mixed with a culture medium, incubated in a culture flask at 37° C. under 5% CO2 for 2 to 3 days, and the medium was removed. The remaining cells were washed with DPBS (Dulbecco's Phosphate Buffered Saline) and separated from the flask by using Tripsin-EDTA. […] 100 μl of the diluted cell solution was added to each well of a 96-well plate, and incubated at 37° C. under 5% CO2 for 1 day.
In case that the test compound was not soluble in DMSO, 1% HCl was added thereto and treated in a 40° C. water bath for 30 mins until a complete dissolution was attained. The DMSO solution containing test compound was diluted with a culture medium to a final concentration of 100 μM, and then diluted 10 times serially to 10^−6 μM (a final concentration of DMSO was less than 1%).
The medium was removed from each well of the 96-well plate. And then, 100 μl of a test compound solution was added to each well holding the cultured cells, and the plate was incubated at 37° C. under 5% CO2 for 72 hours (except that NCI-H1975 cells were incubated for 48 hours). After removing the medium from the plate, 50 μA of 10% trichloroacetic acid was added to each well, and the plate was kept at 4° C. for 1 hour to fix the cells to the bottom of the plate. The added 10% trichloroacetic acid solution was removed from each well, the plate was dried, 100 μA of an SRB (Sulforhodamine-B) dye solution at a concentration of 0.4% dissolved in 1% acetic acid was added thereto, and the resulting mixture was reacted for 10 mins at room temperature. After removing the dye solution, the plate was washed with water, and well dried. When the dye solution was not effectively removed by water, 1% acetic acid was used. 150 μA of 10 mM trisma base was added to each well, and the absorbance at 540 nm wavelength was determined with a microplate reader.

[5] = target: T1, EGFR WT (Homo sapiens, UniProt P00533); assay: z-lyte kinase assay, EGFR WT; type: biochemical
T1 construct: purchased Invitrogen

[6] = target: T2, EGFR L858R/T790M (Homo sapiens, UniProt P00533, L858R/T790M); assay: z-lyte kinase assay, EGFR L858R/T790M; type: biochemical
T2 construct: purchased Invitrogen

[7] = system: A431 (EGFR WT); assay: Inhibition test for growth of cancer cell expressing EGFR (SRB), A431; type: cell-based; conditions: Homo sapiens, A-431; A431 cells, 72 hours, SRB; read-out: GI50 A431 EGFR WT;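 note: cells in 96-well plates exposed to tenfold serial dilutions from 100 µM down to 10^−6 µM, DMSO under 1%, SRB staining read as absorbance at 540 nm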
[8] = target: T3, BTK (Homo sapiens, UniProt Q06187); assay: z-lyte kinase assay, BTK; type: biochemical
T3 construct: purchased Invitrogen
Protocol: (§2) The inhibiting activities of the inventive compounds obtained in Examples 1 to 237 against EGFR WT and EGFR L858R/T790M kinase were determined using z-lyte kinase assay kit (Invitrogen, PV3191). The kinases used in the test were purchased from Invitrogen.
(§3) The compounds obtained in Examples 1 to 237 were each prepared to 10 mM DMSO solution, and a solution containing 4% DMSO were prepared therefrom and diluted to a concentration of 1 μM to 0.0001 μM. […] The test was conducted in a 384 well polystyrene flat-bottomed plates. 5 μl of the diluted solution of each compound was added to each well, and 10 μl of a mixture of peptide substrate and kinase in a suitable concentration and 5 μl of 5˜300 μM ATP solution were successively added thereto and the plate was incubated in a stirrer at room temperature for 60 minutes. After 60 mins, 10 μl of coloring reagent was added to the resulting mixture to initiate a fluorescence reaction of peptide substrate and a terminating solution was added thereto for terminating the reaction. A fluorescence value of each well was determined with a fluorescence meter (Molecular Device) at 400 nm (excitation filter) and 520 nm (emission filter). […] The calculation of IC50 and the result analysis were carried out by using Microsoft Excel.
(§4) The inhibiting activities of the inventive compounds obtained in Examples 1 to 237 against BTK and JAK3 kinases were determined, respectively. The procedure of Test Example 2 was repeated except that BTK and JAK3 kinases (Invitrogen) were employed instead of using the EGFR kinase.

[9] = target: T4, JAK3 (Homo sapiens, UniProt P52333); assay: z-lyte kinase assay, JAK3; type: biochemical
T4 construct: purchased Invitrogen
T4 sequence (P52333 1-1124): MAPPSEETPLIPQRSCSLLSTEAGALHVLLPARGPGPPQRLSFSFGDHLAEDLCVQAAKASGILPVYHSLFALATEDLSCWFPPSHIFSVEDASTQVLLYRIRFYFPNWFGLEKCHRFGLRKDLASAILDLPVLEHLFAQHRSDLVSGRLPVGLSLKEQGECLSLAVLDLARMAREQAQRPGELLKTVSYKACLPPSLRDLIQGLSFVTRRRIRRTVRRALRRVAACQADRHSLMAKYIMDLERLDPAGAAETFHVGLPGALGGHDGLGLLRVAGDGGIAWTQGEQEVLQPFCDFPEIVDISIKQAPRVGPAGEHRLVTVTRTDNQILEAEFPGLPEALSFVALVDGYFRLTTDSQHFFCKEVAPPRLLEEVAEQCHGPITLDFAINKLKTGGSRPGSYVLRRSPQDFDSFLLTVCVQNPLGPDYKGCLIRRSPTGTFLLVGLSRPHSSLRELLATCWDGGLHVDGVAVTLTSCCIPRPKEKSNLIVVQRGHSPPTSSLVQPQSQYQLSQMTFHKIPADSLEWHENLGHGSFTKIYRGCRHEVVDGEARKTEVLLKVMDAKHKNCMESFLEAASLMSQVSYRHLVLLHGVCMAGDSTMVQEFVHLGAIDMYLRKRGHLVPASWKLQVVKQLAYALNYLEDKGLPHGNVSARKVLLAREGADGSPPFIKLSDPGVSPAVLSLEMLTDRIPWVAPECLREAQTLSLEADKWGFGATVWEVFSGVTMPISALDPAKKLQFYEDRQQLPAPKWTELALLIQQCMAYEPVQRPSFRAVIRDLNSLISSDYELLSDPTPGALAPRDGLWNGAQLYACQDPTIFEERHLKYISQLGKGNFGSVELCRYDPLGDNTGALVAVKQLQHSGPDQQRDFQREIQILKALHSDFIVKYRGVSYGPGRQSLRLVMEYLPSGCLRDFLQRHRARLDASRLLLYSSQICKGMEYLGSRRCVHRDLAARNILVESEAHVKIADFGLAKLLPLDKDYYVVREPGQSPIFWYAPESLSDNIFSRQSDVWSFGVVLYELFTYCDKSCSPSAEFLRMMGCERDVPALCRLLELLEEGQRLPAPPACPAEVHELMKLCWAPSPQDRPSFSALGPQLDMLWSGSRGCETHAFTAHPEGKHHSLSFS
Protocol: as §2, §3, §4

T1 sequence (P00533 25-1210): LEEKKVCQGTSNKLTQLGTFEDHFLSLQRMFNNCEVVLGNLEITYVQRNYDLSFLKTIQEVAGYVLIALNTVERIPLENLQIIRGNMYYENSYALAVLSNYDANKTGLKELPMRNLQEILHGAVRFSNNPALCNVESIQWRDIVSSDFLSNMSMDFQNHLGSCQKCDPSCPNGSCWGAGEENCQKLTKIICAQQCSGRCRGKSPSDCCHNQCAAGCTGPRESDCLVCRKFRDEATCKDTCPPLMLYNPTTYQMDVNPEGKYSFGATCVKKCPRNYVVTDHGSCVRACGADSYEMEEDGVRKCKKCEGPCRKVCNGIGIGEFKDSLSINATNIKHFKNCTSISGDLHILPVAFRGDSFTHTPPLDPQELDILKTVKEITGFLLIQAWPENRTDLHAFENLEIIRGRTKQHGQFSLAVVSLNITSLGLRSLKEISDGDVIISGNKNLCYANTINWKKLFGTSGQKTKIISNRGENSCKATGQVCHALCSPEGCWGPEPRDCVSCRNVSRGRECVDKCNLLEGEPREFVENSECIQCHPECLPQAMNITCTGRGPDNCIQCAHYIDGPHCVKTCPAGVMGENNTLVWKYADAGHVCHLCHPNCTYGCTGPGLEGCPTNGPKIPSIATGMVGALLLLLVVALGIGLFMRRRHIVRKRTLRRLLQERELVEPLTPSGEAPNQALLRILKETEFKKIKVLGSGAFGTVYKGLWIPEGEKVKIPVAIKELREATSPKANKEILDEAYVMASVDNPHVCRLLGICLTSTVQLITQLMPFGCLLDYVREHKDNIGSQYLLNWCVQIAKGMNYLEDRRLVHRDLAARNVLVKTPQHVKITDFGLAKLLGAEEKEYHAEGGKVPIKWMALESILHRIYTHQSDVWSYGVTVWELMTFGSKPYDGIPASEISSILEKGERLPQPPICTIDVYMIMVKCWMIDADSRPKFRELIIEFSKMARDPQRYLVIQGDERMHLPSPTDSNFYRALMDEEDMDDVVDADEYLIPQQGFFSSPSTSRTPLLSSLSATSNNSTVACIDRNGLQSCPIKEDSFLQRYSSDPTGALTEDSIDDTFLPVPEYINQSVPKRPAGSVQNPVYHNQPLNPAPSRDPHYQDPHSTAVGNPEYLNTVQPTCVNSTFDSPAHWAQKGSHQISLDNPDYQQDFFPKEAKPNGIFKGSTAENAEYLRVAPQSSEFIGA
T2 sequence (P00533 25-1210 T790M/L858R): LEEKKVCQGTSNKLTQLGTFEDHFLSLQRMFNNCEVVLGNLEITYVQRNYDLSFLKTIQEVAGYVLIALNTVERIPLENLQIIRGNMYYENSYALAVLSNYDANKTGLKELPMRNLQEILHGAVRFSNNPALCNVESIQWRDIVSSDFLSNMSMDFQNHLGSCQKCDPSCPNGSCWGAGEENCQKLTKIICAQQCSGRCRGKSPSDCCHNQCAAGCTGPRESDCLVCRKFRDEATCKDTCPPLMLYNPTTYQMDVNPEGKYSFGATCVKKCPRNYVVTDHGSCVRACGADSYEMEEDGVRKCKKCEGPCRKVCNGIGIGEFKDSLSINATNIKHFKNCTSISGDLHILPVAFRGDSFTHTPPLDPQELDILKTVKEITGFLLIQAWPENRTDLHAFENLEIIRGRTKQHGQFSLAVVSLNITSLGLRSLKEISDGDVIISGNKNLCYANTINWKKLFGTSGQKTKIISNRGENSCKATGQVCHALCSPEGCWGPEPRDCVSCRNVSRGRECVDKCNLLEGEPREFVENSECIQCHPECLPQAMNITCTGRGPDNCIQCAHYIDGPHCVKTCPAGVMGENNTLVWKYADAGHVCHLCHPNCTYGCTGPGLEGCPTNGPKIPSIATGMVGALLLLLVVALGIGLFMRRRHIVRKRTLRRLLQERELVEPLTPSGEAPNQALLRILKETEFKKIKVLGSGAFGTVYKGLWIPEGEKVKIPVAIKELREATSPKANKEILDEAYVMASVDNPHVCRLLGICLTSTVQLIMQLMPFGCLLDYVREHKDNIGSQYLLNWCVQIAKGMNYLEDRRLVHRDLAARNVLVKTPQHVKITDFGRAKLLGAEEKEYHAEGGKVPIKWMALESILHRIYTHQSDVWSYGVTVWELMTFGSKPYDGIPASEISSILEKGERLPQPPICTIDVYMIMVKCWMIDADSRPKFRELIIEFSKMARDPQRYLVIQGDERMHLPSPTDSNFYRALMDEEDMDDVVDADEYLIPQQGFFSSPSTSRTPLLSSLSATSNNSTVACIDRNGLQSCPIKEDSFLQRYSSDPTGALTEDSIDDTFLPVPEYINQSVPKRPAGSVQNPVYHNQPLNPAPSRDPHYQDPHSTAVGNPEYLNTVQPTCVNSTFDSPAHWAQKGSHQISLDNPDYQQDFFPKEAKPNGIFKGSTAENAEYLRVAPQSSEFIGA
T3 sequence (Q06187 whole entry): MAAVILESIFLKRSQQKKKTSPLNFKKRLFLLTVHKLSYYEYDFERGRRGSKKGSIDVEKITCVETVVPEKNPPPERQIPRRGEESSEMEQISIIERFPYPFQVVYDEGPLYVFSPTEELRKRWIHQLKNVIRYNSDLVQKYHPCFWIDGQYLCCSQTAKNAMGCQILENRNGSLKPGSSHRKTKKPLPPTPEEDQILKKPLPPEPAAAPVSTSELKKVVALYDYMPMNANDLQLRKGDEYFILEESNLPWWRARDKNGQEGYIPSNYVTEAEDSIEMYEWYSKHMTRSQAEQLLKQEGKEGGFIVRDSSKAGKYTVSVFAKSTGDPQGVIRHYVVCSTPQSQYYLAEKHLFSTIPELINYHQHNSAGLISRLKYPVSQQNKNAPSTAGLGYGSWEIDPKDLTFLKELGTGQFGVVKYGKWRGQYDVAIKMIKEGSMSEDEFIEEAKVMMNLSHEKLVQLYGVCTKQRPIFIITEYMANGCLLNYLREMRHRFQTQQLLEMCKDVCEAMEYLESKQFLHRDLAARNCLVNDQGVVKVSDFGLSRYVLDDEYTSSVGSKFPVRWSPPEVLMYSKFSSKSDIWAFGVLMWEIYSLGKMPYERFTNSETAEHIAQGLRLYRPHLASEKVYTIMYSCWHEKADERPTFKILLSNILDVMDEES

CN(C)C/C=C/C(=O)Nc1cc2c(Nc3ccc(F)c(Cl)c3)ncnc2cc1O[C@H]1CCOC1 [BIBW2992, Afatinib, reference compound]
IR (tumor growth inhibition rate) ([1]; 50 mg/kg): 77% | mBWL (maximum body weight loss) ([2]; 50 mg/kg): 9.1%

C=CC(=O)Nc1cccc(Nc2nc(Nc3ccc(N4CCN(C)CC4)c(F)c3)nc3ccsc23)c1 [Example 215]
GI50 [3]: < 50 nM | GI50 [4]: < 50 nM | IC50 [5]: > 1000 nM | IC50 [6]: < 50 nM

C=CC(=O)Nc1cccc(Nc2nc(Nc3ccc(N4CCN(C)CC4)cc3)nc3ccsc23)c1 [Example 206, N-(3-(2-(4-(4-methylpiperazin-1-yl)phenylamino)thieno[3,2-d]pyrimidin-4-ylamino)phenyl)acrylamide]
GI50 [3]: < 50 nM | GI50 [4]: < 50 nM | GI50 [7]: > 1000 nM | IC50 [5]: 100 to 1000 nM | IC50 [6]: < 50 nM

C=CC(=O)Nc1cccc(Oc2nc(Nc3ccc(N4CCN(C)CC4)cc3OC)nc3ccsc23)c1 [Example 2]
GI50 [3]: 50 to 100 nM | GI50 [4]: 50 to 100 nM | GI50 [7]: > 1000 nM | IC50 [5]: > 1000 nM | IC50 [6]: < 50 nM | IR (tumor growth inhibition rate) ([1]; 70 mg/kg): 75% | mBWL (maximum body weight loss) ([2]; 70 mg/kg): −7.6% | weight gain ([2]; in therapeutically equivalent dose (70 mg/kg), NCI-H1975 xenografted nude mice): 7.6%

C=CC(=O)Nc1cccc(Oc2nc(Nc3ccc(N4CCC(N5CCCCC5)CC4)cc3)nc3ccsc23)c1 [Example 48]
GI50 [3]: < 50 nM | GI50 [4]: < 50 nM | GI50 [7]: > 1000 nM | IC50 [5]: 100 to 1000 nM | IC50 [6]: < 50 nM | IC50 [8]: ≤ 50 nM | IC50 [9]: ≤ 50 nM

C=CC(=O)Nc1cccc(Oc2nc(Nc3ccc(C4CCCN(C)C4)cc3OC)nc3ccsc23)c1 (stereo not shown) [Example 115]
GI50 [3]: < 50 nM | GI50 [4]: < 50 nM | IC50 [5]: > 1000 nM | IC50 [6]: < 50 nM

C=CC(=O)Nc1cccc(Oc2nc(Nc3ccc(N4CCOCC4)c(F)c3)nc3ccsc23)c1 [Example 122]
GI50 [3]: < 50 nM | GI50 [4]: < 50 nM | GI50 [7]: > 1000 nM | IC50 [5]: > 1000 nM | IC50 [6]: < 50 nM

C=CC(=O)Nc1cccc(Oc2nc(Nc3ccc(N4CCOCC4)cc3)nc3ccsc23)c1 [Example 29]
GI50 [3]: 50 to 100 nM | GI50 [4]: < 50 nM | GI50 [7]: > 1000 nM | IC50 [8]: ≤ 50 nM | IC50 [9]: ≤ 50 nM

C=CC(=O)Nc1cccc(Oc2nc(Nc3ccc(N4CCN(C(C)C)CC4)cc3)nc3ccoc23)c1 [Example 229]
GI50 [3]: < 50 nM | GI50 [4]: < 50 nM | GI50 [7]: 100 to 1000 nM | IC50 [8]: ≤ 50 nM | IC50 [9]: ≤ 50 nM

C=CC(=O)Nc1cccc(Oc2nc(Nc3ccc(CCN4CCN(CC)CC4)cc3)nc3ccsc23)c1 [Example 99]
GI50 [3]: 50 to 100 nM | GI50 [4]: < 50 nM | GI50 [7]: > 1000 nM | IC50 [8]: ≤ 50 nM | IC50 [9]: 50 to 100 nM

C=CC(=O)Nc1cccc(Oc2nc(Nc3ccc(OC4CCN(CC)CC4)cc3)nc3ccsc23)c1 [Example 66]
GI50 [3]: < 50 nM | GI50 [4]: < 50 nM | GI50 [7]: > 1000 nM | IC50 [8]: ≤ 50 nM | IC50 [9]: 50 to 100 nM
